Measured values from ChEMBL document CHEMBL1135508, “Synthesis, SAR, and biological evaluation of oximino-piperidino-piperidine amides. 1. Orally bioavailable CCR5 receptor antagonists with potent anti-HIV activity” (J Med Chem, 2002).

Tests used:
U-87 MG = assay: Concentration required to inhibit the entry of HIV-1 reporter virus (ADA) into U-87 cells by 50%; format: functional, cell-based, U-87MG ATCC
Rattus norvegicus = assay: Area under curve value at 0-6 hr in rat pharmacokinetic screening after 10 mg/kg peroral dose; format: ADME, organism-based; parameters: time < 6 hr, dose 10 mg/kg, route oral; details: in vivo, po
[1] = target: T1, Muscarinic acetylcholine receptor M2 (Homo sapiens, UniProt P08172); assay: Inhibitory activity against Muscarinic acetylcholine receptor M2
T1 sequence (P08172 whole entry): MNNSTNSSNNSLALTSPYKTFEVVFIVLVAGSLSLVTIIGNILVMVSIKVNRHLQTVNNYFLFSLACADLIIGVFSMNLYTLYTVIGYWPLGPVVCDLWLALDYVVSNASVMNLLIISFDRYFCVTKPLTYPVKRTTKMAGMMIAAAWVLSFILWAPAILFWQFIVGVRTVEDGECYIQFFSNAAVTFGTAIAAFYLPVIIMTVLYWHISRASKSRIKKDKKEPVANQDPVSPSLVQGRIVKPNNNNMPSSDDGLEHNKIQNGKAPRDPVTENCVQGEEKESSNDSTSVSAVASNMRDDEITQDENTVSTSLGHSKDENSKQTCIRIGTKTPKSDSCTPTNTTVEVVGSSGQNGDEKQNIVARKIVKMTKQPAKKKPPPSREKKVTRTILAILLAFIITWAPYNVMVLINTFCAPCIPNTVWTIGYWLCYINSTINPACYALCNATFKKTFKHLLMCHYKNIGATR

[2] = Percent of bioavailability after oral administration at the dose 10/10 (IV/Po/mg/kg); format: ADME, organism-based; details: in vivo, 10 mg/kg, read-out: Bioavailabiility
[3] = Plasma clearance after IV administration at the dose 10/10 (IV/Po/mg/kg); format: ADME, organism-based; details: 10 mg/kg
[4] = Half life (t 1/2) after IV administration at the dose 2/2 (IV/Po/mg/kg); format: ADME, organism-based; details: cercopithecidae, in vivo, 2 mg/kg
[5] = C max after oral administration at the dose 2/2 (IV/Po/mg/kg); format: ADME, organism-based; details: cercopithecidae, in vivo, 2 mg/kg
[6] = Half life (t 1/2) after IV administration at the dose 10/10 (IV/Po/mg/kg); format: ADME, organism-based; details: in vivo, 10 mg/kg
[7] = C max after oral administration at the dose 10/10 (IV/Po/mg/kg); format: ADME, organism-based; details: in vivo, 10 mg/kg
[8] = Plasma clearance after IV administration at the dose 2/2 (IV/Po/mg/kg); format: ADME, organism-based; details: cercopithecidae, 2 mg/kg
[9] = Percent of Absorption after IV administration at the dose 10/10 (IV/Po/mg/kg); format: ADME, organism-based; details: in vivo, 10 mg/kg, read-out: Absorption
[10] = Percent of bioavailability after oral administration at the dose 2/2 (IV/Po/mg/kg); format: ADME, organism-based; details: cercopithecidae, in vivo, 2 mg/kg, read-out: Bioavailabiility
[11] = Percent of Absorption after IV administration at the dose 2/2 (IV/Po/mg/kg); format: ADME, organism-based; details: cercopithecidae, in vivo, 2 mg/kg, read-out: Absorption
[12] = T max after oral administration at the dose 2/2 (IV/Po/mg/kg); format: ADME, organism-based; details: cercopithecidae, in vivo, 2 mg/kg
[13] = T max after oral administration at the dose 10/10 (IV/Po/mg/kg); format: ADME, organism-based; details: in vivo, 10 mg/kg

| Structure (SMILES) | IC50 (U-87 MG; Homo sapiens, U-87 MG) | AUC (Rattus norvegicus) | further results |
| --- | --- | --- | --- |
| CCO/N=C(/c1ccc(Br)cc1)C1CCN(C2(C)CCN(C(=O)c3c(C)cccc3C)CC2)CC1 | 9.2 nM |  |  |
| CO/N=C(\c1ccc(C(F)(F)F)cc1)C1CCN(C2(C)CCN(C(=O)c3c(C)cc[n+]([O-])c3C)CC2)CC1 | 1.1 nM | 350 ng·h/mL |  |
| COc1ccc(S(=O)(=O)c2ccc(CC3CCN(C4CCN(C(=O)c5ccc(F)c6ccccc56)CC4)CC3)cc2)cc1 |  |  | Ki [1]: 1.3 nM |
| CNC(=O)CO/N=C(\c1ccc(Br)cc1)C1CCN(C2(C)CCN(C(=O)c3c(C)cccc3C)CC2)CC1 | 4.4 nM |  |  |
| Cc1cccc(C)c1C(=O)N1CCC(C)(N2CCC(Cc3ccc(Br)cc3)CC2)CC1 | 10 nM | 40 ng·h/mL | Ki [1]: 1320 nM |
| CCO/N=C(\c1ccc(Br)cc1)C1CCN(C2(C)CCN(C(=O)c3c(C)cc(C)nc3O)CC2)CC1 | 6.4 nM |  |  |
| CO/N=C(/c1ccc(Br)cc1)C1CCN(C2(C)CCN(C(=O)c3c(C)cccc3C)CC2)CC1 | 2.8 nM | 1200 ng·h/mL |  |
| CO/N=C(\c1ccc(OC(F)(F)F)cc1)C1CCN(C2(C)CCN(C(=O)c3c(C)cc[n+]([O-])c3C)CC2)CC1 | 5.1 nM | 3300 ng·h/mL |  |
| C=C(c1ccc(Br)cc1)C1CCN(C2(C)CCN(C(=O)c3c(C)cccc3C)CC2)CC1 | 1 nM | 590 ng·h/mL |  |
| CCO/N=C(\c1ccc(C(F)(F)F)cc1)C1CCN(C2(C)CCN(C(=O)c3c(C)cc[n+]([O-])c3C)CC2)CC1 | 1.3 nM | 2200 ng·h/mL |  |
| CCO/N=C(\c1ccc(Br)cc1)C1CCN(C2(C)CCN(C(=O)c3cccnc3C)CC2)CC1 | 1.4 nM |  |  |
| CO/N=C(\c1ccc(Br)cc1)C1CCN(C2(C)CCN(C(=O)c3c(C)cccc3N)CC2)CC1 | 0.5 nM | 1300 ng·h/mL |  |
| CCO/N=C(\c1ccc(Br)cc1)C1CCN(C2(C)CCN(C(=O)c3c(C)ccnc3C)CC2)CC1 | 0.2 nM | 2100 ng·h/mL |  |
| Cc1cccc(C)c1C(=O)N1CCC(C)(N2CCC(Cc3ccc(Cl)cc3)CC2)CC1 | 23 nM |  |  |
| Cc1cccc(C)c1C(=O)N1CCC(C)(N2CCC(/C(=N/O)c3ccc(Br)cc3)CC2)CC1 | 10 nM |  |  |
| CO/N=C(\c1ccc(Br)cc1)C1CCN(C2(C)CCN(C(=O)c3c(N)cccc3Cl)CC2)CC1 | 0.6 nM | 620 ng·h/mL |  |
| COc1ccc(CC2CCN(C3(C)CCN(C(=O)c4c(C)cccc4C)CC3)CC2)cc1 | 26 nM |  |  |
| CCO/N=C(\c1ccc(Cl)cc1)C1CCN(C2(C)CCN(C(=O)c3c(C)cc[n+]([O-])c3C)CC2)CC1 | 1.4 nM | 1700 ng·h/mL |  |
| Cc1cccc(C)c1C(=O)N1CCC(C)(N2CCC(C(O)c3ccc(Br)cc3)CC2)CC1 (stereo unspecified) | 76 nM |  |  |
| CCO/N=C(\c1ccc(S(C)(=O)=O)cc1)C1CCN(C2(C)CCN(C(=O)c3c(C)cc[n+]([O-])c3C)CC2)CC1 |  | 0 ng·h/mL |  |
| CO/N=C(\c1ccc(Br)cc1)C1CCN(C2(C)CCN(C(=O)c3c(C)cccc3O)CC2)CC1 | 4 nM | 3000 ng·h/mL |  |

| Structure (SMILES) | IC50 (U-87 MG; Homo sapiens, U-87 MG) | AUC (Rattus norvegicus) | further results |
| --- | --- | --- | --- |
| Cc1cccc(C)c1C(=O)N1CCC(C)(N2CCC(Cc3ccccc3Br)CC2)CC1 | 1300 nM |  |  |
| Cc1cccc(C)c1C(=O)N1CCC(C)(N2CCC(/C(=N/OC(C)(C)C)c3ccc(Br)cc3)CC2)CC1 | 5.7 nM |  |  |
| Cc1cccc(C)c1C(=O)N1CCC(C)(N2CCC(C(=O)c3ccc(Br)cc3)CC2)CC1 | 12 nM |  |  |
| CCO/N=C(\c1ccc(Br)cc1)C1CCN(C2(C)CCN(C(=O)c3c(C)cc[n+]([O-])c3C)CC2)CC1 [ANCRIVIROC] | 0.6 nM | 6500 ng·h/mL | bioavailability [2]: 63%; clearance [3]: 12.8 mL/min/kg; half-life [4]: 6 h; Cmax [5]: 760 nM; half-life [6]: 5.4 h; Cmax [7]: 2500 nM; clearance [8]: 4.28 mL/min/kg; Fa [9]: 57%; bioavailability [10]: 52%; Fa [11]: 80%; Tmax [12]: 2 h; Tmax [13]: 0.5 h |
| CCO/N=C(\c1ccc(Br)cc1)C1CCN(C2(C)CCN(C(=O)c3c(C)ccc[n+]3[O-])CC2)CC1 | 1.7 nM | 3200 ng·h/mL |  |
| Cc1cccc(C)c1C(=O)N1CCC(C)(N2CCC(Cc3ccc(C(F)(F)F)cc3)CC2)CC1 | 1 nM |  |  |
| CO/N=C(\c1ccc(Br)cc1)C1CCN(C2(C)CCN(C(=O)c3c(C)cccc3C)CC2)CC1 (stereo in doubt; 14c (Z)) | 1.2 nM | 1400 ng·h/mL |  |
| CCO/N=C(\c1ccc(Br)cc1)C1CCN(C2(C)CCN(C(=O)c3c(C)cc(O)nc3C)CC2)CC1 | 0.9 nM | 210 ng·h/mL |  |
| Cc1cccc(C)c1C(=O)N1CCC(C)(N2CCC(Cc3cccc(Br)c3)CC2)CC1 | 41 nM |  |  |
| Cc1cccc(C)c1C(=O)N1CCC(C)(N2CCC(/C(=N/OC(C)C)c3ccc(Br)cc3)CC2)CC1 | 1.7 nM | 1700 ng·h/mL |  |
| Cc1cccc(C)c1C(=O)N1CCC(C)(N2CCC(Cc3ccc(S(C)(=O)=O)cc3)CC2)CC1 | 7 nM |  |  |
| CCO/N=C(\c1ccc(Br)cc1)C1CCN(C2(C)CCN(C(=O)c3c(F)cccc3C(F)(F)F)CC2)CC1 | 2.1 nM | 2700 ng·h/mL |  |
| CO/N=C(\c1ccc(Br)cc1)C1CCN(C2(C)CCN(C(=O)c3c(C)ccnc3C)CC2)CC1 | 0.5 nM | 1900 ng·h/mL |  |
| Cc1ccc(CC2CCN(C3(C)CCN(C(=O)c4c(C)cccc4C)CC3)CC2)cc1 | 38 nM |  |  |
| Cc1cccc(C)c1C(=O)N1CCC(C)(N2CCC(Cc3ccc(OC(F)(F)F)cc3)CC2)CC1 | 5 nM |  |  |
| CO/N=C(\c1ccc(Br)cc1)C1CCN(C2(C)CCN(C(=O)c3c(C)cccc3C)CC2)CC1 (stereo in doubt) |  | 2100 ng·h/mL | IC50 (U-87 MG; u-87mg atcc): 1.4 nM |
| Cc1cccc(C)c1C(=O)N1CCC(C)(N2CCC(Cc3ccc(I)cc3)CC2)CC1 | 9 nM |  |  |
| CCO/N=C(\c1ccc(Br)cc1)C1CCN(C2(C)CCN(C(=O)c3c(C)cccc3C)CC2)CC1 | 1.1 nM | 1000 ng·h/mL |  |
| CO/N=C(\c1ccc(Br)cc1)C1CCN(C2(C)CCN(C(=O)c3c(C)cc[n+]([O-])c3C)CC2)CC1 | 5.6 nM | 2400 ng·h/mL |  |
| CCO/N=C(\c1ccc(OC(F)(F)F)cc1)C1CCN(C2(C)CCN(C(=O)c3c(C)cc[n+]([O-])c3C)CC2)CC1 | 1.8 nM | 3000 ng·h/mL |  |
